Source: patent US9695155B2, “Herbicidal substituted pyrimidinyloxy benzene compounds” (E. I. DU PONT DE NEMOURS AND COMPANY, priority 2013, dated 2017)

What was measured:
[1] = system: bluegrass; experiment: Test D postemergence; assay type: in vivo, Poa annua; settings: Poa annua, post-emergence, Postemergence, scale 0 to 100 (0 no effect, 100 complete control), read-out: Plant response rating, Bluegrass
Outline: (§1)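 After treatment, visual injury versus untreated plants, 0–100 scale, assessed at 7 to 21 days. Applications were made preemergence to silt loam-sown seed and postemergence to seedlings 2–18 cm high in potting medium.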

[2] = system: Italian ryegrass; experiment: Test D postemergence; assay type: in vivo, Lolium multiflorum; settings: Lolium multiflorum, post-emergence
Outline: as §1

[3] = system: spring wheat; experiment: Test D preemergence; assay type: in vivo, Triticum aestivum; settings: Triticum aestivum, pre-emergence
Outline: as §1

[4] = system: winter wheat; experiment: Test D preemergence; assay type: in vivo, Triticum aestivum; settings: Triticum aestivum, pre-emergence
Outline: as §1

[5] = system: sandbur; experiment: Test E postemergence; assay type: in vivo, Cenchrus echinatus; settings: Cenchrus echinatus, post-emergence, read-out: Plant response rating, Sandbur
Excerpt: (§2) Seeds of plant species selected from corn (Zea mays), soybean (Glycine max), velvetleaf (Abutilon theophrasti), lambsquarters (Chenopodium album), wild poinsettia (Euphorbia heterophylla), palmer pigweed (Amaranthus palmeri), waterhemp (common waterhemp, Amaranthus rudis), surinam grass (Brachiaria decumbens), large (Lg) crabgrass (Digitaria sanguinalis), Brazilian crabgrass (Digitaria horizontalis), fall panicum (Panicum dichotomiflorum), giant foxtail (Setaria faberii), green foxtail (Setaria viridis), goosegrass (Eleusine indica), johnsongrass (Sorghum halepense), ragweed (common ragweed, Ambrosia elatior), barnyardgrass (Echinochloa crus-galli), sandbur (southern sandbur, Cenchrus echinatus), arrowleaf sida (Sida rhombifolia), Italian ryegrass (Lolium multiflorum), dayflower (Virginia (VA) dayflower, Commelina virginica), field bindweed (Convolvulus arvensis), morningglory (Ipomoea coccinea), nightshade (eastern black nightshade, Solanum ptycanthum), kochia (Kochia scoparia), yellow nutsedge (Cyperus esculentus), cocklebur (common cocklebur, Xanthium strumarium), smartweed (ladysthumb smartweed, and hairy beggarticks (Bidens pilosa), were planted into a silt loam soil and treated preemergence with test chemicals formulated in a non-phytotoxic solvent mixture which included a surfactant.
(§3) At the same time, plants from these crop and weed species and also horseweed (Canada horseweed, Conyza canadensis), waterhemp_RES1, (ALS & Triazine resistant common waterhemp, Amaranthus rudis), and waterhemp_RES2, (ALS & HPPD resistant common waterhemp, Amaranthus rudis) were planted in pots containing Redi-Earth® planting medium (Scotts Company, 14111 Scottslawn Road, Marysville, Ohio 43041) comprising spaghnum peat moss, vermiculite, wetting agent and starter nutrients were treated with postemergence applications of test chemicals formulated in the same manner. Plants ranged in height from 2 to 18 cm for postemergence treatments (1- to 4-leaf stage). Treated plants and controls were maintained in a greenhouse for 14 to 21 days, after which time all species were compared to controls and visually evaluated. Plant response ratings, summarized in Table E, are based on a scale of 0 to 100 where 0 is no effect and 100 is complete control. A dash (-) response means no test result.

[6] = system: wild mustard; experiment: Test D preemergence; assay type: in vivo, Sinapis arvensis; settings: Brassica, pre-emergence
Outline: as §1

[7] = system: oilseed rape; experiment: Test D postemergence; assay type: in vivo, Brassica napus; settings: Brassica napus, post-emergence
Outline: as §1

[8] = system: arrowleaf sida; experiment: Test E postemergence; assay type: in vivo, Sida rhombifolia; settings: Sida rhombifolia, post-emergence, read-out: Plant response rating, Arrowleaf Sida
Excerpt: as §2, §3

[9] = system: corn; experiment: Test E postemergence; assay type: in vivo, Zea mays; settings: Zea mays, post-emergence
Excerpt: as §2, §3

[10] = system: galium; experiment: Test D postemergence; assay type: in vivo, Galium aparine; settings: Galium, post-emergence
Outline: as §1

[11] = system: deadnettle; experiment: Test D preemergence; assay type: in vivo, Lamium amplexicaule; settings: Lamium amplexicaule, pre-emergence
Outline: as §1

[12] = system: field violet; experiment: Test D postemergence; assay type: in vivo, Viola arvensis; settings: Viola arvensis, post-emergence
Outline: as §1

[13] = system: soybean; experiment: Test E postemergence; assay type: in vivo, Glycine max; settings: Glycine max, post-emergence
Excerpt: as §2, §3

[14] = Postemergence, 31 g ai/ha, scale 0 to 100
[15] = Postemergence, 62 g ai/ha, scale 0 to 100
[16] = Postemergence, 125 g ai/ha, scale 0 to 100
[17] = postemergence, 8 g ai/ha, scale 0 to 100, 0 no effect, 100 complete control
[18] = postemergence, 16 g ai/ha, scale 0 to 100, 0 no effect, 100 complete control

Clc1cnc(Oc2ccccc2-n2cc(Br)cn2)nc1 [Compound 7, 2-[2-(4-bromo-1H-pyrazol-1-yl)phenoxy]-5-chloropyrimidine]
pest or weed control at 16 g/ha ([1]; 16 g ai/ha): 0%
pest or weed control at 31 g/ha ([1]; 31 g ai/ha): 0%
pest or weed control at 62 g/ha ([1]; 62 g ai/ha): 0%
pest or weed control at 125 g/ha ([1]; 125 g ai/ha): 10%
pest or weed control at 250 g/ha ([1]; 250 g ai/ha): 15%
pest or weed control at 16 g/ha ([2]; 16 g ai/ha, scale 0-100, read-out: Plant response rating, Ryegrass, Italian): 0%
pest or weed control at 31 g/ha ([2]; 31 g ai/ha, scale 0 to 100 (0 no effect, 100 complete control), read-out: Plant response rating, Ryegrass, Italian): 0%
pest or weed control at 62 g/ha ([2]; 62 g ai/ha, scale 0 to 100 (0 no effect, 100 complete control), read-out: Plant response rating, Ryegrass, Italian): 0%
pest or weed control at 125 g/ha ([2]; 125 g ai/ha, scale 0 to 100 (0 no effect, 100 complete control), read-out: Plant response rating, Ryegrass, Italian): 0%
pest or weed control at 250 g/ha ([2]; 250 g ai/ha, scale 0 to 100 (0 no effect, 100 complete control), read-out: Plant response rating, Ryegrass, Italian): 0%
plant injury at 16 g/ha ([3]; 16 g ai/ha, scale 0 (no effect) to 100 (complete control), read-out: Plant response rating, Wheat, Spring): 0%
plant injury at 31 g/ha ([3]; 31 g ai/ha, scale 0 (no effect) to 100 (complete control), read-out: Plant response rating, Wheat, Spring): 0%
plant injury at 62 g/ha ([3]; 62 g ai/ha, scale 0-100, read-out: Plant response rating, Wheat, Spring): 0%
plant injury at 125 g/ha ([3]; 125 g ai/ha, scale 0-100, read-out: Plant response rating, Wheat, Spring): 0%
plant injury at 250 g/ha ([3]; 250 g ai/ha, scale 0-100, read-out: Plant response rating, Wheat, Spring): 0%
plant injury at 16 g/ha ([4]; 16 g ai/ha, scale 0 (no effect) to 100 (complete control), read-out: Plant response rating, Wheat, Winter): 0%
plant injury at 31 g/ha ([4]; 31 g ai/ha, scale 0 (no effect) to 100 (complete control), read-out: Plant response rating, Wheat, Winter): 0%
plant injury at 62 g/ha ([4]; 62 g ai/ha, scale 0-100, read-out: Plant response rating, Wheat, Winter): 0%
plant injury at 125 g/ha ([4]; 125 g ai/ha, scale 0-100, read-out: Plant response rating, Wheat, Winter): 5%
plant injury at 250 g/ha ([4]; 250 g ai/ha, scale 0-100, read-out: Plant response rating, Wheat, Winter): 10%
pest or weed control at 31 g/ha [5, 14]: 0%
pest or weed control at 62 g/ha [5, 15]: 0%
pest or weed control at 125 g/ha [5, 16]: 0%
pest or weed control at 8 g/ha [5, 17]: 0%
pest or weed control at 16 g/ha [5, 18]: 0%
pest or weed control at 16 g/ha ([6]; 16 g ai/ha, scale 0 (no effect) to 100 (complete control), read-out: Plant response rating, Mustard, Wild): 20%
pest or weed control at 31 g/ha ([6]; 31 g ai/ha, scale 0-100, read-out: Plant response rating, Mustard, Wild): 20%
pest or weed control at 62 g/ha ([6]; 62 g ai/ha, scale 0-100, read-out: Plant response rating, Mustard, Wild): 80%
pest or weed control at 125 g/ha ([6]; 125 g ai/ha, scale 0-100, read-out: Plant response rating, Mustard, Wild): 90%
pest or weed control at 250 g/ha ([6]; 250 g ai/ha, scale 0-100, read-out: Plant response rating, Mustard, Wild): 100%
plant injury at 16 g/ha ([7]; 16 g ai/ha, scale 0-100, read-out: Plant response rating, Oilseed Rape): 75%
plant injury at 31 g/ha ([7]; 31 g ai/ha, scale 0 to 100 (0 no effect, 100 complete control), read-out: Plant response rating, Oilseed Rape): 80%
plant injury at 62 g/ha ([7]; 62 g ai/ha, scale 0 to 100 (0 no effect, 100 complete control), read-out: Plant response rating, Oilseed Rape): 95%
plant injury at 125 g/ha ([7]; 125 g ai/ha, scale 0 to 100 (0 no effect, 100 complete control), read-out: Plant response rating, Oilseed Rape): 100%
plant injury at 250 g/ha ([7]; 250 g ai/ha, scale 0 to 100 (0 no effect, 100 complete control), read-out: Plant response rating, Oilseed Rape): 100%
pest or weed control at 31 g/ha [8, 14]: 80%
pest or weed control at 62 g/ha [8, 15]: 90%
pest or weed control at 125 g/ha [8, 16]: 95%
pest or weed control at 8 g/ha [8, 17]: 65%
pest or weed control at 16 g/ha [8, 18]: 75%
corn plant response (injury) rating, 0-100 at 31 g/ha [9, 14]: 0%
corn plant response (injury) rating, 0-100 at 62 g/ha [9, 15]: 10%
corn plant response (injury) rating, 0-100 at 125 g/ha [9, 16]: 5%
corn plant response (injury) rating, 0-100 at 8 g/ha [9, 17]: 0%
corn plant response (injury) rating, 0-100 at 16 g/ha [9, 18]: 0%
pest or weed control at 16 g/ha ([10]; 16 g ai/ha, scale 0-100, read-out: Plant response rating, Galium): 20%
pest or weed control at 31 g/ha ([10]; 31 g ai/ha, scale 0 to 100 (0 no effect, 100 complete control), read-out: Plant response rating, Galium): 40%
pest or weed control at 62 g/ha ([10]; 62 g ai/ha, scale 0 to 100 (0 no effect, 100 complete control), read-out: Plant response rating, Galium): 70%
pest or weed control at 125 g/ha ([10]; 125 g ai/ha, scale 0 to 100 (0 no effect, 100 complete control), read-out: Plant response rating, Galium): 80%
pest or weed control at 250 g/ha ([10]; 250 g ai/ha, scale 0 to 100 (0 no effect, 100 complete control), read-out: Plant response rating, Galium): 90%
pest or weed control at 16 g/ha ([11]; 16 g ai/ha, scale 0 (no effect) to 100 (complete control), read-out: Plant response rating, Deadnettle): 0%
pest or weed control at 31 g/ha ([11]; 31 g ai/ha, scale 0-100, read-out: Plant response rating, Deadnettle): 0%
pest or weed control at 62 g/ha ([11]; 62 g ai/ha, scale 0-100, read-out: Plant response rating, Deadnettle): 10%
pest or weed control at 125 g/ha ([11]; 125 g ai/ha, scale 0-100, read-out: Plant response rating, Deadnettle): 20%
pest or weed control at 250 g/ha ([11]; 250 g ai/ha, scale 0-100, read-out: Plant response rating, Deadnettle): 80%
pest or weed control at 16 g/ha ([12]; 16 g ai/ha, scale 0-100, read-out: Plant response rating, Field Violet): 10%
pest or weed control at 31 g/ha ([12]; 31 g ai/ha, scale 0 to 100 (0 no effect, 100 complete control), read-out: Plant response rating, Field Violet): 20%
pest or weed control at 62 g/ha ([12]; 62 g ai/ha, scale 0 to 100 (0 no effect, 100 complete control), read-out: Plant response rating, Field Violet): 70%
pest or weed control at 125 g/ha ([12]; 125 g ai/ha, scale 0 to 100 (0 no effect, 100 complete control), read-out: Plant response rating, Field Violet): 70%
pest or weed control at 250 g/ha ([12]; 250 g ai/ha, scale 0 to 100 (0 no effect, 100 complete control), read-out: Plant response rating, Field Violet): 70%
plant response (crop injury) rating, soybean, 0-100 scale at 31 g/ha [13, 14]: 90%
plant response (crop injury) rating, soybean, 0-100 scale at 62 g/ha [13, 15]: 98%
plant response (crop injury) rating, soybean, 0-100 scale at 125 g/ha [13, 16]: 98%
plant response (crop injury) rating, soybean, 0-100 scale at 8 g/ha [13, 17]: 60%
plant response (crop injury) rating, soybean, 0-100 scale at 16 g/ha [13, 18]: 80%
